Reference: publication doi:10.64898/2025.12.08.692997v2 (biorxiv, 2025)
Counter-ions that a name gives are not always drawn. Like-named read-outs stand apart in the source and are kept apart here. Values belong to the compound of their own block, whether it stands above or below them.

Key:
EphB1-EphrinB2 = EphB1-EphrinB2 (Homo sapiens, UniProt P52799+P54762); assay: biolayer interferometry, AUC; assay type: binding; details: read-out: % inhibition at 3.2 μM
[1] = molecular target: human EphB4-His ectodomain - human EphrinB2-Fc ectodomain (EphB4-EphrinB2) (Homo sapiens, UniProt P52799+P54760); assay: biolayer interferometry, AUC; assay type: binding; details: read-out: % inhibition at 3.2 μM
[2] = molecular target: EphrinB2-EphB1 (immobilized human EphrinB2, 25 nM soluble human EphB1) (Homo sapiens, UniProt P52799+P54762); assay: biochemical; details: read-out: % Inhibited (AUC) Association
EphrinB2-EphB1 (immobilized human EphrinB2, 25 nM soluble human EphB1), sequence (P52799 whole entry, the tested form may be a part): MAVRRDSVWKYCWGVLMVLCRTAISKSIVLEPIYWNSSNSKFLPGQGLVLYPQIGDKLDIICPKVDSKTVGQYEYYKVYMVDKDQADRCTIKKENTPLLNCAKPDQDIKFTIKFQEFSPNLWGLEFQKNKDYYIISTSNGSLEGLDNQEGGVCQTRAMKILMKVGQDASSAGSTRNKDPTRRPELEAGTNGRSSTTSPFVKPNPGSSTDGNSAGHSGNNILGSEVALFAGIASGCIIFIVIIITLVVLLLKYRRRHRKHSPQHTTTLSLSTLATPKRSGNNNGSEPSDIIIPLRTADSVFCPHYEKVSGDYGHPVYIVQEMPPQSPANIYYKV
EphrinB2-EphB1 (immobilized human EphrinB2, 25 nM soluble human EphB1), sequence (P54762 whole entry, the tested form may be a part): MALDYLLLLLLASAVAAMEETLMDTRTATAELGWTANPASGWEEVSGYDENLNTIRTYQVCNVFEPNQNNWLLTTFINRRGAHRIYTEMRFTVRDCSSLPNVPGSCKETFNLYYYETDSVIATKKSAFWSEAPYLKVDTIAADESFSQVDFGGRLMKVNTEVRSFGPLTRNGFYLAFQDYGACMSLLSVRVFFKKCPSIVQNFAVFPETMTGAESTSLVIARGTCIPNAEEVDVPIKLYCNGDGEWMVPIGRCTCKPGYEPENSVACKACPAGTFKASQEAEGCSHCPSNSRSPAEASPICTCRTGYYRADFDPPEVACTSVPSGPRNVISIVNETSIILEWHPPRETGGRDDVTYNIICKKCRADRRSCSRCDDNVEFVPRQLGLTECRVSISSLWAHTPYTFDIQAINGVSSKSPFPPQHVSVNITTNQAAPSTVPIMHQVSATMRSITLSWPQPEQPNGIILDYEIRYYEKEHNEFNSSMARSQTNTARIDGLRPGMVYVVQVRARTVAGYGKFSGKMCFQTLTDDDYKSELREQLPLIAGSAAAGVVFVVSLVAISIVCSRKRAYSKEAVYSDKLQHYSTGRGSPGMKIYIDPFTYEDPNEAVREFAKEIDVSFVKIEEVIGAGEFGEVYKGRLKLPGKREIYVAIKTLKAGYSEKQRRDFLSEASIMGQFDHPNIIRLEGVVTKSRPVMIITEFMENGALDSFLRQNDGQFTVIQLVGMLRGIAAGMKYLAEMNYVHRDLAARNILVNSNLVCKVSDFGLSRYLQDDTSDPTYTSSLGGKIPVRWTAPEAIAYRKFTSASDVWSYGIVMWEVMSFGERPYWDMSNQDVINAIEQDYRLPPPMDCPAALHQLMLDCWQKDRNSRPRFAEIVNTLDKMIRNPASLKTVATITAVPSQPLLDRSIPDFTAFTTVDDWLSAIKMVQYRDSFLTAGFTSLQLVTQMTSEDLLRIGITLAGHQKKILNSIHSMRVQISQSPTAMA

[3] = molecular target: T1, human EphB2-His ectodomain - human EphrinB2-Fc ectodomain (EphB2-EphrinB2 tetramer) (Homo sapiens, UniProt P29323+P52799); assay: biolayer interferometry, AUC; assay type: binding; details: read-out: % inhibition at 3.2 μM
Target sequence in this assay (P29323 19-543): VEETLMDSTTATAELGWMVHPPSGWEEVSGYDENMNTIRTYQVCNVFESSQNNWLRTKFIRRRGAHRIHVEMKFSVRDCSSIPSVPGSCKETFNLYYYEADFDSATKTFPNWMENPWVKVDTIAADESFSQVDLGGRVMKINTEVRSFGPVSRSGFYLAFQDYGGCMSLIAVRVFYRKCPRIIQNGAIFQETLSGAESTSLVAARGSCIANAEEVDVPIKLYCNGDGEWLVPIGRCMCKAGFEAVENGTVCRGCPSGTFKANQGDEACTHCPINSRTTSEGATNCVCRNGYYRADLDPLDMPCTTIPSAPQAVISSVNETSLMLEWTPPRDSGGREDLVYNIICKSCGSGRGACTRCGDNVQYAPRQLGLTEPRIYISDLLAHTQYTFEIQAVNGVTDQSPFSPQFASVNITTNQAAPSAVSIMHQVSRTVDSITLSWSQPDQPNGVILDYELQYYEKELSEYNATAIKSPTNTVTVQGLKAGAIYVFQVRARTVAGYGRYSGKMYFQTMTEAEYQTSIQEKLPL
Target sequence in this assay (P52799 28-229): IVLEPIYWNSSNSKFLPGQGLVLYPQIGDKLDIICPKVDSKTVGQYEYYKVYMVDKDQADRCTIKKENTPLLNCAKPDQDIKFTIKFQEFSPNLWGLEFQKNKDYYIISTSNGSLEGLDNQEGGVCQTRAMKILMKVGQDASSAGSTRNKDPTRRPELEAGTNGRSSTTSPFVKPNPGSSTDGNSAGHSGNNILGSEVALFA

[4] = molecular target: T1, human EphB2-His ectodomain - human EphrinB2-Fc ectodomain (EphB2-EphrinB2 tetramer); assay: biochemical; details: EphrinB2-EphB2 IC50 (Absolute, µM)
Target sequence in this assay (P52799 28-229): as above
Target sequence in this assay (P29323 19-543): as the sequence (P29323 19-543) above

[5] = molecular target: T1, human EphB2-His ectodomain - human EphrinB2-Fc ectodomain (EphB2-EphrinB2 tetramer); assay: biochemical
Target sequence in this assay (P52799 28-229): as the sequence (P52799 28-229) above
Target sequence in this assay (P29323 19-543): as the sequence (P29323 19-543) above

[6] = molecular target: T1, human EphB2-His ectodomain - human EphrinB2-Fc ectodomain (EphB2-EphrinB2 tetramer); assay: biochemical; remark: listed apart in the source
Target sequence in this assay (P52799 28-229): as the sequence (P52799 28-229) above
Target sequence in this assay (P29323 19-543): as the sequence (P29323 19-543) above

[7] = molecular target: rat EphB1-Fc ectodomain - mouse EphrinB2-His ectodomain (EphB1-EphrinB2) (Rattus norvegicus; Mus musculus, UniProt P09759+P52800); assay: biochemical
rat EphB1-Fc ectodomain - mouse EphrinB2-His ectodomain (EphB1-EphrinB2), sequence (P52800 29-232): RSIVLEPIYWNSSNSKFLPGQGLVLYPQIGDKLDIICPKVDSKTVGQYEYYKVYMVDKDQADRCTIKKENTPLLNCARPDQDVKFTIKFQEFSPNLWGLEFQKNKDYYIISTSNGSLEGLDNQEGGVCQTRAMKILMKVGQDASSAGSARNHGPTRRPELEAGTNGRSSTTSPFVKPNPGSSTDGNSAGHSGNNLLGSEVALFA
rat EphB1-Fc ectodomain - mouse EphrinB2-His ectodomain (EphB1-EphrinB2), sequence (P09759 18-538): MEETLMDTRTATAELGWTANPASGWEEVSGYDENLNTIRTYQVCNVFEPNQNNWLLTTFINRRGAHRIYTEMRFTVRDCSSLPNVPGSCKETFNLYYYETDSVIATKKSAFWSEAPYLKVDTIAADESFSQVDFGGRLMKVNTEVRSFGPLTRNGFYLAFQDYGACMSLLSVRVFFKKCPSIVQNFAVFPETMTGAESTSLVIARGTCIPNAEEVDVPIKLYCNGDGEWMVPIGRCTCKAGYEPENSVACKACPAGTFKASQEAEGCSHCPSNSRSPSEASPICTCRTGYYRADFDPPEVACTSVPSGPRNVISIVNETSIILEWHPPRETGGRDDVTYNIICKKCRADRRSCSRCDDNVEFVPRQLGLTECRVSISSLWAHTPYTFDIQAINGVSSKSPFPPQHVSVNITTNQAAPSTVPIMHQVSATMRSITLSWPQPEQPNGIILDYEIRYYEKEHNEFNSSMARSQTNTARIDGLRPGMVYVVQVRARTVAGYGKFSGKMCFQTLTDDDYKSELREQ

[8] = molecular target: T1, human EphB2-His ectodomain - human EphrinB2-Fc ectodomain (EphB2-EphrinB2 tetramer); assay: biochemical; details: EphrinB2-EphB2 IC50 (Relative, µM)
Target sequence in this assay (P52799 28-229): as the sequence (P52799 28-229) above
Target sequence in this assay (P29323 19-543): as the sequence (P29323 19-543) above

[9] = molecular target: EphrinB2 of mouse pancreatic stellate cells stimulated with mouse EphB2-Fc-His (Mus musculus, UniProt P52800+P54763); assay: % pEphrinB2 by IP and immunoblot; assay type: cell-based
EphrinB2 of mouse pancreatic stellate cells stimulated with mouse EphB2-Fc-His, sequence (P52800 29-336): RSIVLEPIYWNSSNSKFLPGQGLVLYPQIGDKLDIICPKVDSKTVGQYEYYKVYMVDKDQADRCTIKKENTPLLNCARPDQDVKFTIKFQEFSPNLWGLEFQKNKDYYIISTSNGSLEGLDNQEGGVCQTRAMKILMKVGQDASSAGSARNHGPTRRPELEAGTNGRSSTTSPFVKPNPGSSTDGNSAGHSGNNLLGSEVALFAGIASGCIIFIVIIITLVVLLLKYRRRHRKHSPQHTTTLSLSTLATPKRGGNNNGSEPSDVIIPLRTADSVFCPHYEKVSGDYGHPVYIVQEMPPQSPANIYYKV
EphrinB2 of mouse pancreatic stellate cells stimulated with mouse EphB2-Fc-His, sequence (P54763 19-540): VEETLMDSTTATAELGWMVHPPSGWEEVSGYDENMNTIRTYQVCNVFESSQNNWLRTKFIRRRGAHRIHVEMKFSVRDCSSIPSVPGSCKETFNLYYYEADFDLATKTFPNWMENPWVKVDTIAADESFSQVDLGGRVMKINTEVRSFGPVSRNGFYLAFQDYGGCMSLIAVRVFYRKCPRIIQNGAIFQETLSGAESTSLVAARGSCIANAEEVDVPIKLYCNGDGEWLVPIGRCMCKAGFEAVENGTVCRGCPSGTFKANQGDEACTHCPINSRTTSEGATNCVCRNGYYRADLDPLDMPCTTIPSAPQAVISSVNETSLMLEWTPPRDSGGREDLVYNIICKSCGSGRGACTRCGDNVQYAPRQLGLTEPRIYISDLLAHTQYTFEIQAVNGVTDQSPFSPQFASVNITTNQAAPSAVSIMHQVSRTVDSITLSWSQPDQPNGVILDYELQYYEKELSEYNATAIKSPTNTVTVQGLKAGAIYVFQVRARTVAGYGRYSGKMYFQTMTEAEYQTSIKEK

[10] = molecular target: T1, human EphB2-His ectodomain - human EphrinB2-Fc ectodomain (EphB2-EphrinB2 tetramer); assay: biochemical; remark: listed apart in the source
Target sequence in this assay (P52799 28-229): as the sequence (P52799 28-229) above
Target sequence in this assay (P29323 19-543): as the sequence (P29323 19-543) above

[11] = molecular target: T1, human EphB2-His ectodomain - human EphrinB2-Fc ectodomain (EphB2-EphrinB2 tetramer); assay: biochemical; remark: listed apart in the source
Target sequence in this assay (P52799 28-229): as the sequence (P52799 28-229) above
Target sequence in this assay (P29323 19-543): as the sequence (P29323 19-543) above

[12] = molecular target: T1, human EphB2-His ectodomain - human EphrinB2-Fc ectodomain (EphB2-EphrinB2 tetramer); assay: biochemical; remark: listed apart in the source
[13] = molecular target: T1, human EphB2-His ectodomain - human EphrinB2-Fc ectodomain (EphB2-EphrinB2 tetramer); assay: biochemical; remark: listed apart in the source
[14] = molecular target: T1, human EphB2-His ectodomain - human EphrinB2-Fc ectodomain (EphB2-EphrinB2 tetramer); assay: biochemical; remark: listed apart in the source
[15] = molecular target: T1, human EphB2-His ectodomain - human EphrinB2-Fc ectodomain (EphB2-EphrinB2 tetramer); assay: biochemical; remark: listed apart in the source
[16] = molecular target: T1, human EphB2-His ectodomain - human EphrinB2-Fc ectodomain (EphB2-EphrinB2 tetramer); assay: biochemical; remark: listed apart in the source
[17] = molecular target: T1, human EphB2-His ectodomain - human EphrinB2-Fc ectodomain (EphB2-EphrinB2 tetramer); assay: biochemical; remark: listed apart in the source
[18] = molecular target: T1, human EphB2-His ectodomain - human EphrinB2-Fc ectodomain (EphB2-EphrinB2 tetramer); assay: biochemical; remark: listed apart in the source
Target sequence in this assay (P29323 19-543): as above
Target sequence in this assay (P52799 28-229): as the sequence (P52799 28-229) above

[19] = molecular target: T1, human EphB2-His ectodomain - human EphrinB2-Fc ectodomain (EphB2-EphrinB2 tetramer); assay: biolayer interferometry, AUC of concentration series; assay type: binding
Target sequence in this assay (P29323 19-543): as the sequence (P29323 19-543) above
Target sequence in this assay (P52799 28-229): as the sequence (P52799 28-229) above

[20] = molecular target: T1, human EphB2-His ectodomain - human EphrinB2-Fc ectodomain (EphB2-EphrinB2 tetramer); assay: biochemical; remark: listed apart in the source
[21] = molecular target: T1, human EphB2-His ectodomain - human EphrinB2-Fc ectodomain (EphB2-EphrinB2 tetramer); assay: biochemical; remark: listed apart in the source
[22] = molecular target: T1, human EphB2-His ectodomain - human EphrinB2-Fc ectodomain (EphB2-EphrinB2 tetramer); assay: biochemical; details: Octet IC50 data EB2-EphB2 (Absolute)
[23] = molecular target: T1, human EphB2-His ectodomain - human EphrinB2-Fc ectodomain (EphB2-EphrinB2 tetramer); assay: biochemical; details: Octet IC50 data EB2-EphB2 (Relative)

Compound: CCOc1cc(C(Nc2cc(C)ccn2)c2ccc3cccnc3c2O)ccc1O (stereo not shown) [SW039498]
IC50 [5]: > 3.2 µM | IC50 [6]: > 3.2 µM

Compound: O=C(O)CN(CCN(CC(=O)O)CC(=O)O)CC(=O)O [EDTA]
IC50 [9]: 1.1 µM

Compound: O=C(O)[C@@H](S)[C@@H](S)C(=O)O [compound 8, Succimer]
IC50 [10]: ~50 µM | IC50 [11]: ~50 µM

Compound: O=C(O)CN(CCOCCOCCN(CC(=O)O)CC(=O)O)CC(=O)O [compound 2, EGTA sodium salt]
IC50 [14]: > 3.2 µM | IC50 [15]: > 3.2 µM

Compound: COCCN(CCCCc1ccc2c(n1)NCCC2)CC[C@H](Nc1ncnc2ccccc12)C(=O)O [compound 9, Bexotegrast]
IC50 [16]: > 100 µM

Compound: Cc1ccnc(NC(c2cccc([N+](=O)[O-])c2)c2ccc3cccnc3c2O)c1 (stereo not shown) [SW039339]
IC50 [6]: > 3.2 µM

Compound: Oc1c(Br)cc(CN2CCN(c3ccc(Br)cc3)CC2)c2cccnc12 [BQPB4]
IC50 [18]: 0.28 µM | Ki [19]: 0.00288 µM | IC50 [9]: 1.6 µM | inhibition at 3.2 µM [2]: 39.1%

Compound: O=C(Oc1cccc2cccnc12)c1ccc(F)cc1 [compound 2, 8-quinolinyl 4-fluorobenzoate]
IC50 [13]: > 100 µM | IC50 [20]: 100 µM

Compound: O=C(O)c1ccc(-n2nc(-c3ccccc3O)nc2-c2ccccc2O)cc1 [compound 3, Deferasirox]
IC50 [16]: > 100 µM

Compound: Clc1cc2c(c3ncccc13)OCN(CCC1=CCCCC1)C2 [compound 12, 6-chloro-3-(2-(cyclohex-1-en-1-yl)ethyl)-3,4-dihydro-2H-[1,3]oxazino[5,6-h]quinoline]
IC50 [22]: 0.66 µM | IC50 [23]: 0.59 µM

More lines, now with the values ahead:

inhibition at 3.2 µM (EphB1-EphrinB2): 36.6% | inhibition at 3.2 µM [1]: 13.9% | inhibition at 3.2 µM [2]: 32.6% | inhibition at 3.2 µM [3]: 61.8% | IC50 [4]: > 1.6 µM
Compound: Oc1c(I)cc(CN2CCOCC2)c2cccnc12 [A20-I]

IC50 [7]: > 100 µM | IC50 [8]: > 1.6 µM | IC50 [4]: > 1.6 µM
Compound: Oc1ccc(CN2CCOCC2)c2cccnc12 [A19, 5-(morpholinomethyl)quinolin-8-ol]

IC50 [12]: ~31.6 µM | IC50 [13]: 38 µM
Compound: O=C(Oc1c(Cl)cc(Cl)c2cccnc12)c1ccc([N+](=O)[O-])cc1 [4a, 5,7-dichloro-8-quinolinyl 4-nitrobenzoate]

IC50 [15]: > 3.2 µM | IC50 [17]: ~3.2 µM
Compound: Oc1ccc(Cl)c2cccnc12 [compound 3, Cloxiquine]

IC50 [7]: > 100 µM | IC50 [8]: 0.81 µM | IC50 [4]: > 1.6 µM
Compound: O=S1(=O)CCN(Cc2ccc(O)c3ncccc23)CC1 [QTM . 2 HCl, 4-((8-hydroxyquinolin-1-ium-5-yl)methyl)thiomorpholin-4-ium 1,1-dioxide chloride]

Ki [21]: 0.00373 µM
Compound: Oc1ccc(CSc2ccccc2)c2cccnc12 [SW160569, G15]
